Assay results reported in ChEMBL document CHEMBL2440069, “Synthesis and biological evaluation of direct thrombin inhibitors bearing 4-(piperidin-1-yl)pyridine at the P1 position with potent anticoagulant activity” (J Med Chem, 2013).

Assays:
[1] = Dissociation constant, pKa of the compound by potentiometric titration; format: physicochemical
Coagulation factor X = Coagulation factor X (Homo sapiens, UniProt P00742); experiment: Inhibition of human factor 10a using Z-D-Arg-Gly-Arg-p-NA as substrate by chromogenic assay
Coagulation factor X, sequence (P00742 41-179 limits assumed): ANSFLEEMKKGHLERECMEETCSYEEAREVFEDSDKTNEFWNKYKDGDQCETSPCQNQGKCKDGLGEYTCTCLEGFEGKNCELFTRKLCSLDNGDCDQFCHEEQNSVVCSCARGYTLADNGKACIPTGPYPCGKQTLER
Coagulation factor X, sequence (P00742 235-488 limits assumed): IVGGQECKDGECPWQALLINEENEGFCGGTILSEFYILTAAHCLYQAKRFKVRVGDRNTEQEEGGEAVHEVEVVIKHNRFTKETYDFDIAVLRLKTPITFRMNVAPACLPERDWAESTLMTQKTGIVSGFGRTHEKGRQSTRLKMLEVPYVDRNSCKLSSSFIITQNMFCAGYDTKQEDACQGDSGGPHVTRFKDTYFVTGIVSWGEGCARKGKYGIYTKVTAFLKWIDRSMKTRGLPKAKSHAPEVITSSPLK

Prothrombin [2] = biological target: Prothrombin (Bos taurus, UniProt P00735); experiment: Inhibition of bovine thrombin using D-Phe-Pip-Arg-p-NA as substrate by chromogenic assay
[3] = Permeability of the compound at pH 8 by PAMPA assay; format: ADME
[4] = Permeability of the compound at pH 6.8 by PAMPA assay; format: ADME
Plasma = experiment: Anticoagulant activity in human plasma assessed as concentration required to double activated […] time; format: functional
[5] = 1-octanol-water partition coefficient, log P of the neutral form compound by HILIC analysis; format: physicochemical
Chymotrypsinogen A = Chymotrypsinogen A (Bos taurus, UniProt P00766); experiment: Inhibition of bovine alpha-chymotrypsin using N-succinyl-Ala-Ala-Pro-Phe-p-NA as substrate by chromogenic assay
[6] = 1-octanol-water partition coefficient, log D of the compound; format: physicochemical
Neutrophil elastase = biological target: T1, Neutrophil elastase (Homo sapiens, UniProt P08246); experiment: Inhibition of human neutrophil leukocyte elastase using N-(methoxysuccinyl)-Ala-Ala-Pro-Val-p-NA as substrate by chromogenic assay
T1 sequence (P08246 whole entry): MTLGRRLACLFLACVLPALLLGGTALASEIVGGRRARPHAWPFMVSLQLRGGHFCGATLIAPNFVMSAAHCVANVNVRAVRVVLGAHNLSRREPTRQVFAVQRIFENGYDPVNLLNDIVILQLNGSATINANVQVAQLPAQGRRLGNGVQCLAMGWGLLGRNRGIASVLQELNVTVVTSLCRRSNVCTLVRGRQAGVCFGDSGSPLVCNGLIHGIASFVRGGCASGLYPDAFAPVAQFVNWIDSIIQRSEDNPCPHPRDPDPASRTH

Prothrombin [7] = biological target: Prothrombin (Homo sapiens, UniProt P00734); experiment: Inhibition of human thrombin using D-Phe-Pip-Arg-p-NA as substrate by chromogenic assay
Coagulation factor VII = biological target: T2, Coagulation factor VII (Homo sapiens, UniProt P08709); experiment: Inhibition of human recombinant factor 7a using spectrozyme as substrate by chromogenic assay
T2 sequence (P08709 whole entry): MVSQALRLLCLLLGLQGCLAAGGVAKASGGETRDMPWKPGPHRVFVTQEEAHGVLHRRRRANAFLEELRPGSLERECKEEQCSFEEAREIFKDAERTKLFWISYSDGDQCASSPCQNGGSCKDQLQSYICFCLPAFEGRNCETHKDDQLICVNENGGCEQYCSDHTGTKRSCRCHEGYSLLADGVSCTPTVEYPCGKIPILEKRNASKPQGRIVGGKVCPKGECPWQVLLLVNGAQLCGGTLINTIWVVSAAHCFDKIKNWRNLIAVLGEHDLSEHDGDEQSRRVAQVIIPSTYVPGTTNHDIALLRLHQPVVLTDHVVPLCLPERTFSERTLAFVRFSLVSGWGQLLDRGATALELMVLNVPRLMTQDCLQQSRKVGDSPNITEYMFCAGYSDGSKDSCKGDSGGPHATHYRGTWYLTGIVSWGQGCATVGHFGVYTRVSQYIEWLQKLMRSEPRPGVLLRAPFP

[8] = Inhibition of bovine pancreatic trypsin using D-Phe-Pip-Arg-p-NA as substrate by chromogenic assay; set-up: species or system Bos taurus
Mus musculus [9] = experiment: Ex vivo anticoagulant activity in CD1 mouse plasma assessed as activated partial thromboplastin time at 100 mg/kg, po after 1 hr; format: functional
Mus musculus [10] = experiment: Ex vivo anticoagulant activity in CD1 mouse plasma assessed as activated partial thromboplastin time at 100 mg/kg, po after 2 hrs; format: functional

Compound	pKa [1]	Ki (Coagulation factor X) [µM]	Ki (Prothrombin [2]; read-out: Ki) [µM]	other results
CC(C)N1CCC(C(=O)Nc2cccc(OCc3ccc(F)cc3)c2)CC1	9.4	> 250	> 250	–
O=C(Nc1cccc(OCc2ccccc2)c1)C1CCN(c2ccncc2)CC1	–	7.46	39.5	–
O=C(Nc1cccc(OCc2cccc(Br)c2)c1)C1CCN(c2ccncc2)CC1	–	6.31	20.9	–
O=C(Nc1cccc(OCc2cccc(Cl)c2)c1)C1CCN(c2ccncc2)CC1	–	> 250	0.156	–
O=C(Nc1cccc(OCc2ccc(F)cc2)c1)C1CCN(Cc2ccncc2)CC1	3.3	47.1	15.3	log Pe [3]: impermeable; log Pe [4]: impermeable
Nc1ccc(N2CCC(C(=O)Nc3cccc(OCc4ccc(F)cc4)c3)CC2)cc1	3	63.5	> 250	–
O=C(Nc1ccccc1OCc1cccc(F)c1)C1CCN(c2ccncc2)CC1	–	> 250	> 250	–
CC(=N)N1CCC(C(=O)Nc2cccc(OCc3ccc(F)cc3)c2)CC1	–	57.3	> 250	–
O=C(Nc1cccc(OCc2ccc3c(c2)OCO3)c1)C1CCN(c2ccncc2)CC1	9.1	3.72	0.053	2aPTT (Plasma): >200 µM; logP [5]: 4.9; log Pe [4]: impermeable; Ki (Chymotrypsinogen A): > 250 µM
COc1cc(COc2cccc(NC(=O)C3CCN(c4ccncc4)CC3)c2)cc(OC)c1	8.9	126	0.083	2aPTT (Plasma): 200 µM; logP [5]: 4.9; Ki (Chymotrypsinogen A): 33.8 µM
CS(=O)(=O)c1ccc(COc2cccc(NC(=O)C3CCN(c4ccncc4)CC3)c2)cc1	9.1	7.73	0.124	2aPTT (Plasma): 98.2 µM; logP [5]: 4.9; Ki (Chymotrypsinogen A): > 250 µM
O=C(Nc1cccc(OCc2ccc(F)cc2F)c1)C1CCN(c2ccncc2)CC1	–	8.8	4.64	–
CN(C(=O)C1CCN(c2ccncc2)CC1)c1cccc(OCc2cccc(F)c2)c1	–	23.6	> 250	–
O=C(Nc1cccc(OCc2ccc(C(F)(F)F)cc2)c1)C1CCN(c2ccncc2)CC1	–	48.5	3.4	–
CS(=O)(=O)c1ccccc1COc1cccc(NC(=O)C2CCN(c3ccncc3)CC2)c1	–	35.1	12.3	–
COc1cccc(COc2cccc(NC(=O)C3CCN(c4ccncc4)CC3)c2)c1	–	7.23	1.15	–
Fc1cccc(COc2cccc(NCC3CCN(c4ccncc4)CC3)c2)c1	–	3.83	> 250	–
Nc1cccc(COc2cccc(NC(=O)C3CCN(c4ccncc4)CC3)c2)c1	–	36.1	13.3	–
O=C(Nc1cccc(COc2cccc(F)c2)c1)C1CCN(c2ccncc2)CC1	–	> 250	18.2	logD [6]: 3.02

Compound	pKa [1]	Ki (Coagulation factor X) [µM]	Ki (Prothrombin [2]; read-out: Ki) [µM]	other results
CN(C)Cc1ccc(COc2cccc(NC(=O)C3CCN(c4ccncc4)CC3)c2)cc1	–	12.2	8.19	–
O=C(Nc1cccc(OCc2ccc(F)cc2)c1)C1CCN(c2ccccn2)CC1	8.5	78	> 250	–
O=C(Nc1cccc(OCc2cc(F)cc(F)c2)c1)C1CCN(c2ccncc2)CC1	9.2	27	0.063	Ki (Neutrophil elastase): > 250 µM; 2aPTT (Plasma): 26.3 µM; Ki (Prothrombin [7]): 0.031 µM; logP [5]: 5.2; Ki (Coagulation factor VII): > 250 µM; Ki (Chymotrypsinogen A): 31.4 µM; Ki [8]: > 250 µM
COc1ccccc1COc1cccc(NC(=O)C2CCN(c3ccncc3)CC2)c1	–	16.4	1.3	–
O=C(Nc1cccc(OCc2ccccc2F)c1)C1CCN(c2ccncc2)CC1	9.2	6.83	0.064	Ki (Neutrophil elastase): > 250 µM; 2aPTT (Plasma): 19.8 µM; Ki (Prothrombin [7]): 0.09 µM; logP [5]: 4.9; Ki (Coagulation factor VII): > 250 µM; Ki (Chymotrypsinogen A): 71.6 µM; Ki [8]: 27 µM
O=C(Nc1cccc(OCc2ccc(Cl)cc2)c1)C1CCN(c2ccncc2)CC1	–	29.6	0.26	–
O=C(Nc1cccc(OCCc2cccc(F)c2)c1)C1CCN(c2ccncc2)CC1	–	2.14	0.488	Ki (Prothrombin [2]; read-out: pKi (converted)): 18.2 µM
O=C(Nc1cccc(OCc2ccc(Br)cc2)c1)C1CCN(c2ccncc2)CC1	–	37.1	2.03	–
O=C(Nc1cccc(OCc2ccc(F)cc2)c1)C1CCN(c2ncccn2)CC1	6	91.6	26.8	log Pe [3]: impermeable; log Pe [4]: impermeable
COc1ccc(COc2cccc(NC(=O)C3CCN(c4ccncc4)CC3)c2)cc1	–	11.1	2.03	–
O=C(Nc1cccc(OCc2ccc(F)cc2)c1)C1CCN(c2ccncc2)CC1	8.9	–	–	Ki (Neutrophil elastase): 68.7 µM; 2aPTT (Plasma): 59 µM; Ki (Prothrombin [7]): 0.014 µM; logP [5]: 5.1; Ki (Coagulation factor VII): > 250 µM; Ki (Chymotrypsinogen A): 71.6 µM; Ki [8]: > 250 µM
O=C(Nc1cccc(OCc2cccc([N+](=O)[O-])c2)c1)C1CCN(c2ccncc2)CC1	–	6.73	26.8	–
O=C(Nc1cccc(OCc2ccc(F)cc2)c1)C1CCNCC1	9.8	–	–	–
O=C(Nc1cccc(CCc2cccc(F)c2)c1)C1CCN(c2ccncc2)CC1	–	44.1	12.4	Ki (Prothrombin [2]; read-out: pKi (converted)): 12.3 µM; logD [6]: 3.58
COc1ccc(COc2cccc(NC(=O)C3CCN(c4ccncc4)CC3)c2)cc1OC	9.2	0.606	0.031	Ki (Neutrophil elastase): > 250 µM; 2aPTT (Plasma): 154 µM; Ki (Prothrombin [7]): 0.755 µM; logP [5]: 4.9; Ki (Coagulation factor VII): > 250 µM; Ki (Chymotrypsinogen A): 71.5 µM; Ki [8]: 27 µM
Nc1ccc(COc2cccc(NC(=O)C3CCN(c4ccncc4)CC3)c2)cc1	–	25	10	–
O=C(Nc1cccc(OCc2ccc([N+](=O)[O-])cc2)c1)C1CCN(c2ccncc2)CC1	–	6	5.85	–
CS(=O)(=O)c1cccc(COc2cccc(NC(=O)C3CCN(c4ccncc4)CC3)c2)c1	–	15.6	15.9	–
O=C(Nc1cccc(OCc2cccc(F)c2)c1)C1CCN(c2ccncc2)CC1	9	–	0.006	Ki (Neutrophil elastase): 11.3 µM; 2aPTT (Plasma): 6.6 µM; Ki (Prothrombin [7]): 0.016 µM; logP [5]: 5; Ki (Coagulation factor VII): > 250 µM; Activity (Mus musculus [9]): 36%; Activity (Mus musculus [10]): 43%; Ki (Chymotrypsinogen A): 6.6 µM; Ki [8]: > 250 µM; logD [6]: 3.14
